The values below come from patent US4517002A (priority 1983, dated 1985).

Assay [1] concerns urease. The format is biochemical. The settings on record: pH 5.4.
In assay [2] the test system is urease. Type of assay: biochemical. As to conditions: pH 7.2.

On to `NP(N)(=O)OCC(F)(F)F` [Experiment 1], for which, in the assay with urease [1], the “% Inhibition Wisconsin Soil” value turned out to be 90%. Also, the “% Inhibition Cazenovia Soil” value in the assay with urease [2] stood at 97%. With `NP(N)(=O)OCC(Cl)(Cl)Cl` [Experiment 2], the “% Inhibition Wisconsin Soil” value in the assay with urease [1] was determined as 87%. Further, in the assay with urease [2], the “% Inhibition Cazenovia Soil” value is recorded as 97%. For `NP(N)(=O)OCCBr` [Experiment 3], the “% Inhibition Cazenovia Soil” value in the assay with urease [2] is 85%. `NP(N)(=O)OCCCl` [Experiment 4]: the “% Inhibition Cazenovia Soil” value with urease [2] was 84%. Regarding `C=CCOP(N)(N)=O` [Experiment 6], the “% Inhibition Wisconsin Soil” value in the assay with urease [1] was 38%. Moreover, the “% Inhibition Cazenovia Soil” value with urease [2] worked out at 65%. Regarding `NP(N)(=O)OCc1ccccc1` [Experiment 7], the “% Inhibition Wisconsin Soil” value with urease [1] is listed as 20%. Further, in the assay on urease [2], the “% Inhibition Cazenovia Soil” value was determined as 69%. `NP(N)(=O)OCCCCl` [Experiment 8]: the “% Inhibition Wisconsin Soil” value in the assay with urease [1] came out at 22%. The “% Inhibition Cazenovia Soil” value in the assay with urease [2] came to 41%. In the case of `COP(N)(N)=O` [Experiment 9], in the assay on urease [2], the “% Inhibition Cazenovia Soil” value is given as 34%.

With `CCCOP(N)(N)=O` [Experiment 10], the “% Inhibition Cazenovia Soil” value in the assay with urease [2] was 15%. As to `NP(N)(=O)OC1CCCCC1` [Experiment 11], the “% Inhibition Cazenovia Soil” value in the assay on urease [2] was determined as 85%.

Turning to `NP(N)(=O)OC1C(Cl)(Cl)CCCC1(Cl)Cl` [Experiment 12], the “% Inhibition Cazenovia Soil” value in the assay with urease [2] is 38%.
